Experimental data reported in patent publication US20070054887A1, “Methods for treating bladder dysfunction” (BioXell S.p.A, priority 2003, published 2007).

How the values were obtained:
human bladder cells = test: inhibition of basal human bladder cell growth; assay type: cell-based; conditions: Homo sapiens
bladder strips = test: contractile properties of isolated bladder strips from BOO model rats; parameters: species or system Sprague-Dawley rats; conditions: in vitro test
Method: After completion of the cystometries, the rats were sacrified by carbon monoxide asphyxiation followed by exsanguination. The abdomen was accessed through a lower midline incision whereafter the symphysis was opened. The bladder was carefully dissected free, and immediately placed in chilled Krebs solution, and strip preparations were dissected.
The bladder and urethra were separated at the level of the bladder neck, and semicircular strips were prepared from the middle third of the detrusor (1×2×5 mm). All preparations were used immediately after removal.
The strips were transferred to 5 ml tissue baths containing Krebs solution. The Krebs solution was maintained at 37° C. and bubbled continuously with a mixture of 95% O2 and 5% CO2, resulting in a pH of 7.4. The strips were suspended between two L-shaped hooks by means of silk ligatures. One hook was connected to a movable unit allowing adjustment of passive tension, and the other to a Grass FT03C (Grass Instruments Co, MA, USA) force transducer. Isometric tension was recorded using a Grass polygraph (7D). After mounting, the strips were stretched to a passive tension of 4 mN (the same tension for all preparations) and allowed to equilibrate for 45-60 min before further experiments were performed.
Electrical field stimulation (EFS) was accomplished by means of two platinum electrodes placed on either side of the preparations, and was performed using a Grass S48 or S88 stimulator, delivering single square wave pulses at selected frequencies. The train duration was 5 s, the pulse duration 0.8 ms, and the stimulation interval 2 min. The polarity of the electrodes was shifted after each pulse by means of a polarity changing unit.
Each experiment was started by exposing the preparations to a high K^+ (124 mM) Krebs solution until two reproducible contractions are obtained. Then the following experiments were carried out:
a) Electrical stimulation of nerves was performed and frequency-response relations obtained, in the presence and absence of atropine.
b) Concentration-response curves were constructed for carbachol and ATP […]

hBC = test: DNA fragmentation / apoptotic index in hBC by in situ end labelling (ISEL); conditions: Compound A 10 nM, alone and in the presence of KGF (10 ng/ml) or testosterone (10 nM); FIG. 7
bcl-2 = test: Bcl-2 protein expression in hBC by immunocytochemistry; assay type: cell-based, human; conditions: Compound A 10 nM, alone and in the presence of KGF (10 ng/ml) or testosterone (10 nM); FIG. 6
Method: After incubation with the indicated stimuli, slides were washed twice with PBS pH 7.4 and fixed in 3.7% paraformaldehyde in PBS for 15 min at room temperature, followed by permeabilization in 3.7% paraformaldehyde in PBS, containing 0.1% Triton X-100 for 15 min at room temperature. Anti-Bcl-2 mAb (1:40) diluted in PBS containing 2% BSA was added to the slides and incubated overnight at 4° C. Slides were washed three times (5 min) in PBS and incubated 45 min at room temperature with 2% BSA-PBS, containing the secondary antibody (dilution 1:1000). After three washes in PBS, the slides were examined with a phase contrast microscope (Nikon mocrophot-FX microscopes; Nikon, Kogaku, Tokyo, Japan). Slides lacking the primary antibody or stained with the corresponding non-immune serum served as controls.

BOO rats = test: bladder outlet obstruction (BOO) rat model: cystometry and bladder weight; assay type: in vivo, Sprague-Dawley rats; conditions: 150 ug/kg/daily over 2 weeks
Method: Female Sprague-Dawley rats, weighing 200-250 g
Group A: BOO rats, treated with the vitamin D analogue over 2 weeks, beginning at day 1 after creation of the obstruction (n=12)
Group B: BOO rats, treated with vehicle over 2 weeks, beginning at day 1 after creation of the obstruction (n=12)
Group C: Sham operated rats, treated with the vitamin D analogue over 2 weeks, beginning at day 1 after surgery (n=12)
a) Cystometry (˜18 hours after last administration of the drug/vehicle, 12 hours after removal of the obstructing ligature) under conscious conditions.
The bladder and urethrovesical junction were exposed through a lower abdominal midline incision. A 0.9 mm metal rod was placed alongside the proximal urethra and a 3-0 silk ligature was tied tightly around the urethra and the rod, which was consequently removed. Sham surgery was performed accordingly, without placing the ligature. After 13 days the ligature was removed and a catheter was inserted into the bladder dome and tunneled subcutaneously.
The following morning after insertion of the catheter, the cystometric investigation was performed without any anesthesia or restraint in a metabolic cage. The amount of voided urine was measured by means of a fluid collector, connected to a force displacement transducer. The bladder was continuously filled with saline at room temperature. The catheter was also connected to a pressure transducer. After a stabilization period of 30-60 minutes, when reproducible voiding patterns are achieved, the following parameters were recorded over a period of 30 min: Basal bladder pressure, micturition pressure, threshold pressure, micturition interval and volume, and non-voiding contractions. The amount of residual urine was investigated manually 3 times, at the end of the cystometry. Bladder capacity was calculated based on the measured values.
The validated bladder outlet obstruction rat model described above was used to test the ability of vitamin D3 analogues to control and treat bladder dysfunction. The objective was to evaluate whether a vitamin D3 analogue (1-alpha-fluoro-25-hydroxy-16,23e-diene-26,27-bishomo-20-epi-cholecalciferol-Compound “A”) at the dose of 150 ug/kg/daily can prevent bladder hypertrophy and bladder dysfunction such as bladder overactivity.
In this model a ligature was surgically placed around the outlet of the catheterized bladder, so that when the catheter was removed, the bladder experienced increased urethral resistance. The rats underwent continuous cystometry to evaluate bladder function. In addition the contractile properties of isolated bladder preparation in response to nerve stimulation and exogenous stimuli in vitro were investigated under electrical field stimulation (EFS).

vimentin = vimentin gene and protein expression in serum-starved hBC; assay type: cell-based, human; conditions: 10 nM, at any time point tested; FIG. 13
Method: Vimentin was detected (mRNA and protein) as per the method for desmin described in Example 1B. Vimentin is a fibroblastic cell marker. Quantitative analysis using real-time RT-PCR of vimentin mRNA expression in serum-starved hBC treated with Compound A (10 nM) was examined at different time points (2-12 days). Results are derived from five different experiments from three distinct hBC preparations and are expressed as fold increase compared to time zero. Control, open columns; Compound A, grey columns.
Western blot detection of vimentin in hBC was performed as follows: Thirty ug of proteins were separated by 10% SDS-PAGE, transferred onto nitrocellulose membrane, and probed with anti-vimentin antibody (1:1000). A band of about 61 kDa was detected in each sample of hBC. […] Results are representative of three independent experiments performed using separate hBC preparations.
Immunocytochemical detection of vimentin in hBC was conducted as follows: Cells were seeded onto sterile glasses, treated with Compound A (10 nM) and processed at the indicated time points with an anti-vimentin antibody (1:1000). […] Quantification of three separate experiments from three distinct preparations of hBC is shown in FIG. 15 (control, open columns; Compound A, grey columns). […]

Question: Which IC50 (human bladder cells) does the source give for C=C1/C(=C\C=C2/CCC[C@]3(C)C([C@@H](C)C/C=C/C(O)(CC)CC)=CC[C@@H]23)C[C@@H](O)C[C@@H]1F [Compound A, 1-alpha-fluoro-25-hydroxy-16,23E-diene-26,27-bishomo-20-epi-cholecalciferol] here?
Answer: Its IC50 is 6.31 pM.

Question: And the “response to carbachol of bladder strips” value (bladder strips)?
Answer: Its value is “beneficial effect”.

Question: What about the “response to EFS of bladder strips” value (bladder strips; electrical field stimulation, FIG. 21) of the same molecule?
Answer: Its value is “beneficial effect”.

Question: What about the “K response of bladder strips” value (bladder strips; strips from treated rats, high K+ (124 mM)) of the same molecule?
Answer: Its value is “beneficial effect”.

Question: What about the apoptotic index (hBC) of the same molecule?
Answer: Its apoptotic index is “significantly increases”.

Question: And the “bcl-2 expression (percentage of bcl-2 stained cells)” value (bcl-2)?
Answer: The value was “significantly inhibits”.

Question: And the “spontaneous non-voiding contraction amplitude” value (BOO rats; versus vehicle)?
Answer: The value was “significant differences versus vehicle”.

Question: What about the “spontaneous non-voiding contraction frequency” value (BOO rats; versus vehicle) of the same molecule?
Answer: The value was “significant differences versus vehicle”.

Question: And the micturition pressure (BOO rats; versus vehicle, FIG. 19)?
Answer: Its micturition pressure is “significant differences versus vehicle”.

Question: What about the bladder weight (BOO rats; FIG. 16) of the same molecule?
Answer: Its bladder weight is “slight decrease”.

Question: What about the residual urine (BOO rats; FIG. 20) of the same molecule?
Answer: Its residual urine is “absent”.

Question: What about the “vimentin protein expression (Western blot)” value (vimentin) of the same molecule?
Answer: The value was “failed to affect”.
